Assay results as given in patent US11912663B2, “Multi-targeted tyrosine kinase inhibitors and their pharmaceutical uses” (Shanghai AB PharmaTech Ltd., priority 2021, dated 2024).

Columns and labels:
VEGFR3 (FLT4) = VEGFR3 (FLT4) (Homo sapiens (Human), UniProt P35916); test: kinase inhibition, Mobility-Shift Assay; format: biochemical; conditions: 84 μM ATP
VEGFR2 (KDR) = VEGFR2 (KDR) (Homo sapiens (Human), UniProt P35968); test: kinase inhibition, Mobility-Shift Assay; format: biochemical; conditions: VEGFR2, 92 μM ATP
FGFR2 = FGFR2 (Homo sapiens (Human), UniProt P21802); test: kinase inhibition, Mobility-Shift Assay; format: biochemical; conditions: 1.9 μM ATP
[1] = MTD toxicity test in rats; format: in vivo; conditions: 150 mg/kg
[2] = system: cervical cancer cell lines (Hela); test: tumor cell proliferation inhibition (CTG), cervical cancer cell line; format: cell-based; conditions: Homo sapiens, 72 hours
[3] = system: kidney cancer cell line (Caki-1); test: tumor cell proliferation inhibition (CTG), kidney cancer cell line; format: cell-based; conditions: Homo sapiens, 72 hours, read-out: Caki-1 (renal cancer) IC50
[4] = system: lung cancer cell line (A549); test: tumor cell proliferation inhibition (CTG), lung cancer cell line; format: cell-based; conditions: Homo sapiens, 72 hours
[5] = system: leukemia cell line (K562); test: tumor cell proliferation inhibition (CTG), leukemia cell line; format: cell-based; conditions: Homo sapiens, 72 hours
[6] = system: pancreatic cancer cell line (BXPC3); test: tumor cell proliferation inhibition (CTG), pancreatic cancer cell line; format: cell-based; conditions: Homo sapiens, BXPC-3, 72 hours
RET = RET (Homo sapiens (Human), UniProt P07949); test: kinase inhibition, Mobility-Shift Assay; format: biochemical; conditions: 23 μM ATP
[7] = system: gastric cancer cell line (SNU16); test: tumor cell proliferation inhibition (CTG), gastric cancer cell line; format: cell-based; conditions: Homo sapiens, SNU-16, 72 hours, read-out: SUN16 IC50
VEGFR1 (FLT1) = VEGFR1 (FLT1) (Homo sapiens (Human), UniProt P17948); test: kinase inhibition, Mobility-Shift Assay; format: biochemical; conditions: 278 μM ATP
prostatic cancer (PC-3) = test: tumor cell proliferation inhibition (CTG), PC-3; format: cell-based; conditions: 72 hours
hERG potassium channels = hERG potassium channels (Homo sapiens (Human), UniProt Q12809); test: in vitro inhibitory effect of hERG, whole-cell patch clamp; format: cell-based; conditions: whole-cell recording, room temperature
[8] = system: hepatocellular carcinoma cell line (Hep3B 2.1-7); test: tumor cell proliferation inhibition (CTG), hepatocellular carcinoma cell line; format: cell-based; conditions: Homo sapiens, 72 hours
[9] = system: BXPC3, SNU16, Hep3B 2.1-7 subcutaneous tumors; test: tumor suppression in nude mice with subcutaneously transplanted tumors; format: in vivo; conditions: BXPC3, SNU16, Hep3B 2.1-7 transplants, within 3-4 weeks
Description: These preferred compounds (e.g., IIIb-08, IIIb-09, IIIb-45, IIIb-50, IIIb-55, IIIb-56, IIIb-57, IIIb-58, IIIb-60, IIIb-61, IIIb-65) are currently being used to […] in nude mice subcutaneously transplanted with pancreatic cancer cell line (BXPC3), gastric cancer cell line (SNU16), liver cancer cell line (Hep3B 2.1-7) and other tumor suppressive effects have been observed in vivo, the tumor suppression rate of subcutaneous tumors in nude mice could reach 80-110% within 3-4 weeks. […] Therefore, the preferred compounds “IIIb-08, IIIb-09, IIIb-45, IIIb-50, IIIb-55, IIIb-56, IIIb-57, IIIb-58, IIIb-60, IIIb-61, IIIb-65” designed and synthesized by the present invention not only have better inhibitory activity, but also have better safety and drug-forming properties, which are valuable for further preclinical studies such as pharmacotoxicology and clinical trials.

Chain of RET (P07949 29-1114): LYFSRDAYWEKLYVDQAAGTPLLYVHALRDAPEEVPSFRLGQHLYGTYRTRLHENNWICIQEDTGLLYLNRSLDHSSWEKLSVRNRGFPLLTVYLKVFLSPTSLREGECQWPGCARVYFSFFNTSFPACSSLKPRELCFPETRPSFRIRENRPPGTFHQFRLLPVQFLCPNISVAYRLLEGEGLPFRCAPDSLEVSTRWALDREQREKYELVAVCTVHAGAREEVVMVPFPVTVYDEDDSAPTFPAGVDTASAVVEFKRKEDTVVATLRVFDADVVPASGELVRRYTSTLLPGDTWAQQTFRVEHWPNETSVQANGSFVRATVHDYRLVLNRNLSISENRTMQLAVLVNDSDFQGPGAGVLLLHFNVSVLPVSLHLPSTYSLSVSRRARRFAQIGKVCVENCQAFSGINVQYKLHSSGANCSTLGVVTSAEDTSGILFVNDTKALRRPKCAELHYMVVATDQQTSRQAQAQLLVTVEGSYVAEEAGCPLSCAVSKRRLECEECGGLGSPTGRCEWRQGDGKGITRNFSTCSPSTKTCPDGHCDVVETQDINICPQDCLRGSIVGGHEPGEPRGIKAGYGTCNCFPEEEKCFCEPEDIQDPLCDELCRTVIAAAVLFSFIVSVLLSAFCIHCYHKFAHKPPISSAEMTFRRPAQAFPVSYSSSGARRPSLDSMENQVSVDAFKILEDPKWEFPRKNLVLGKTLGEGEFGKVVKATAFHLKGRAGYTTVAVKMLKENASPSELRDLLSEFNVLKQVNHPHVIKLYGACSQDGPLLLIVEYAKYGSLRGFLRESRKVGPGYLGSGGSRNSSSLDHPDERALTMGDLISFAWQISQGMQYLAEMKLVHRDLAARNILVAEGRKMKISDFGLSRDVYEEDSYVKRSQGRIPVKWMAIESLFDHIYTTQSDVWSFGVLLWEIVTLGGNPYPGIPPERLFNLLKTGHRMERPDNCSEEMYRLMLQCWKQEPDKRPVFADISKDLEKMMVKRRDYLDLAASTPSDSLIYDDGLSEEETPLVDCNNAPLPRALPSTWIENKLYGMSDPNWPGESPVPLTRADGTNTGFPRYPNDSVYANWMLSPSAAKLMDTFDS
Chain of VEGFR1 (FLT1) (P17948 27-1338): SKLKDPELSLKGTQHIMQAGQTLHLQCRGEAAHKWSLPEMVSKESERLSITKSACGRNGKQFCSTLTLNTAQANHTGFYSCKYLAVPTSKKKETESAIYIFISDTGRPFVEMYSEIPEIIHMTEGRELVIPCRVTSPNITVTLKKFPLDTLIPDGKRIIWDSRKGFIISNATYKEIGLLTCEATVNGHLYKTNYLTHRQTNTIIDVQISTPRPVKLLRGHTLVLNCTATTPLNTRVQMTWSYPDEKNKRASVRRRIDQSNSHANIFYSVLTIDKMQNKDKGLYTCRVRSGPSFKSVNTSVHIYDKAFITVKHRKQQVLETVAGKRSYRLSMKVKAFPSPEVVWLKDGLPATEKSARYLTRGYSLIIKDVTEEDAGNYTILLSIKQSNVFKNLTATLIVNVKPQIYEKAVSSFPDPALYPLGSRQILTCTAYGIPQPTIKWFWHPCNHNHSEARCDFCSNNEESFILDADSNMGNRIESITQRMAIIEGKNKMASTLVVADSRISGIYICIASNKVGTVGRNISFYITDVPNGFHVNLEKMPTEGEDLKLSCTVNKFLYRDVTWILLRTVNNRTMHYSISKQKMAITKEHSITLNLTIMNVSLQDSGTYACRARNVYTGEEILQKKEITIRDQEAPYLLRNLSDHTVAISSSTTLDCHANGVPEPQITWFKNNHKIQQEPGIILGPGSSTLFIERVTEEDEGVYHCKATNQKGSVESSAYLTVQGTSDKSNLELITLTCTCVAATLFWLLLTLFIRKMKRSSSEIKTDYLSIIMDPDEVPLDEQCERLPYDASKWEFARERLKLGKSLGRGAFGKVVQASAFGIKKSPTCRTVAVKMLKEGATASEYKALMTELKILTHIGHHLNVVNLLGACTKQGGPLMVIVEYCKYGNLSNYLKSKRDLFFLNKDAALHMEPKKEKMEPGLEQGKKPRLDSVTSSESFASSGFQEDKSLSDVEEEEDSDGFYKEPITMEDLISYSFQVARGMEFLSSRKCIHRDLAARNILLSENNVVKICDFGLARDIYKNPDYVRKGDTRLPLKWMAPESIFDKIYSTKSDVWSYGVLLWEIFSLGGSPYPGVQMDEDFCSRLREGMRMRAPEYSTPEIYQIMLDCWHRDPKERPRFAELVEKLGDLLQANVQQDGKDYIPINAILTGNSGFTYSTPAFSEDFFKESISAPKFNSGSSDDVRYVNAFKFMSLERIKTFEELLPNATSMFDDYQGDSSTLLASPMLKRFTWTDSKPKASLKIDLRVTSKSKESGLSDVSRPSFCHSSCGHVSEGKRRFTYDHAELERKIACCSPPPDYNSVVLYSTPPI
Chain of FGFR2 (P21802 22-821): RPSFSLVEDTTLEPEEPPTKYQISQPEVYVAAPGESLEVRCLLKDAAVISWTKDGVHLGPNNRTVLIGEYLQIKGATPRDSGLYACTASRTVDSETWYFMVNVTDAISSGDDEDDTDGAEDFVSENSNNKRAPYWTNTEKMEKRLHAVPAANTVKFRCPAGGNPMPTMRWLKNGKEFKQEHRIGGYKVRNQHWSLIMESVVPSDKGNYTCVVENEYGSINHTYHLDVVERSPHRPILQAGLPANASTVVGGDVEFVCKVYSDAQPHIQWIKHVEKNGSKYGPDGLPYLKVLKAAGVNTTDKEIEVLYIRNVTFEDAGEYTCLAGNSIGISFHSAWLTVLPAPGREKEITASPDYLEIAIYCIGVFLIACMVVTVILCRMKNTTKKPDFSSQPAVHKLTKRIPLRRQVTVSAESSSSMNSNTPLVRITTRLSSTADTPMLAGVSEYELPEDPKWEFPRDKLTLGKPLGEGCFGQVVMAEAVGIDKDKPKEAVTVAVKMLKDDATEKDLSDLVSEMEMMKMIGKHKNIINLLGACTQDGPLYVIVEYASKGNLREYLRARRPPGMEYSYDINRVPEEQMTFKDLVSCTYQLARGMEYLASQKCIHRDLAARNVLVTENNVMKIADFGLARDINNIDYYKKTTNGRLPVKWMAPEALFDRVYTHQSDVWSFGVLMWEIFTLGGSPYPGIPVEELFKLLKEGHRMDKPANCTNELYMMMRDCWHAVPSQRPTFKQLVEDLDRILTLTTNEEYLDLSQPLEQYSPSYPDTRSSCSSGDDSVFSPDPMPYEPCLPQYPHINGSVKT
Chain of hERG potassium channels (Q12809 whole entry): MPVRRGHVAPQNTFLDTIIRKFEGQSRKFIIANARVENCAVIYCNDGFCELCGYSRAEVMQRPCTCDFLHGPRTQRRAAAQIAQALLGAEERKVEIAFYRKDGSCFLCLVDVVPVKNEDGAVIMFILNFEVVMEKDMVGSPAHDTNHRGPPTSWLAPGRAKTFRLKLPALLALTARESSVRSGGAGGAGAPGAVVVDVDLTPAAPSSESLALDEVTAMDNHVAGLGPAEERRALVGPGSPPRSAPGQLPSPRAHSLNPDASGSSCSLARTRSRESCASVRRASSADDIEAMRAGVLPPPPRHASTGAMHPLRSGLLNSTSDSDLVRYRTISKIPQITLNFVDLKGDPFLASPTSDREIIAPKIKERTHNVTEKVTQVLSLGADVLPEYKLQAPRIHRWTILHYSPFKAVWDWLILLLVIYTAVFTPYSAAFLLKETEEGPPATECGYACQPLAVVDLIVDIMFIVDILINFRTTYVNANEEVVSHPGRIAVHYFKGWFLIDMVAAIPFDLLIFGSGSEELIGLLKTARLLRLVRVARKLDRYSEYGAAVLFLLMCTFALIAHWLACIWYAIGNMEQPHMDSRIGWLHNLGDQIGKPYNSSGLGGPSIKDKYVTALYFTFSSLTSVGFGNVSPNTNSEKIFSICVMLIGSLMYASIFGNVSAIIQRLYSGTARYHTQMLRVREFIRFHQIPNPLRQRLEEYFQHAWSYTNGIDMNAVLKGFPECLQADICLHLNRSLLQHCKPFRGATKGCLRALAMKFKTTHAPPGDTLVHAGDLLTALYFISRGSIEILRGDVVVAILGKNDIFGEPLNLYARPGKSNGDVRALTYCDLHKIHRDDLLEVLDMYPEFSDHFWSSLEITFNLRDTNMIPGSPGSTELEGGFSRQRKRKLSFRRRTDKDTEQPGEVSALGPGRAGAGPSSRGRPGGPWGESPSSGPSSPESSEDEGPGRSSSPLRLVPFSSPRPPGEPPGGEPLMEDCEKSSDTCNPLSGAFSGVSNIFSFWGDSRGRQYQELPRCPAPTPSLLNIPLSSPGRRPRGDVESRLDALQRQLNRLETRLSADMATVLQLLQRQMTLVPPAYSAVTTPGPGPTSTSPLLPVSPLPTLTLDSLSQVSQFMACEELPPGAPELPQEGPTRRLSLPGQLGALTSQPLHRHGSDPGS

Q: Which IC50 (VEGFR3 (FLT4)) does the source give for `N#CCCOc1cc2nccc(Oc3c(F)cc(NC(=O)NC4CC4)c(Cl)c3F)c2cc1C(N)=O` [IIIb-65] here?
A: < 0.005 µM

Q: What about the IC50 (VEGFR2 (KDR)) of the same compound?
A: < 0.005 µM

Q: What about the IC50 (FGFR2) of the same compound?
A: < 0.05 µM

Q: And the “MTD toxicity test, clinical outcome” value ([1]; rat, in vivo)?
A: no abnormalities such as death

Q: What about the “autopsy results of organs” value ([1]; rats, QD, 14 days, heart, liver, lungs, kidneys, stomach, intestines and other organs) of the same compound?
A: did not reveal any abnormal changes

Q: And the IC50 [2]?
A: < 5 µM

Q: What about the IC50 [3] of the same compound?
A: < 2.5 µM

Q: And the IC50 [4]?
A: < 2.5 µM

Q: And the IC50 [5]?
A: < 5 µM

Q: And the IC50 [6]?
A: < 5 µM

Q: What about the IC50 (RET) of the same compound?
A: < 0.005 µM

Q: And the IC50 [7]?
A: < 5 µM

Q: What about the IC50 (VEGFR1 (FLT1)) of the same compound?
A: < 0.005 µM

Q: And the IC50 (prostatic cancer (PC-3))?
A: 5 to 10 µM

Q: What about the IC50 (hERG potassium channels) of the same compound?
A: > 30 µM

Q: And the IC50 [8]?
A: < 2.5 µM

Q: What about the “tumor suppression rate of subcutaneous tumors” value [9] of the same compound?
A: 80-110%
